Read-outs that look alike come from different tables or passages of the source.
Legend:
[1] = cited from earlier work; for True group: true group belonging of external test chemicals; for Function in study: training data set, as defined by available literature and expert consensus
[2] = tested on: SenzaCell; assay: GARDair assay: gene expression signature (GRPS, 28 genes) of chemically exposed DC-like cells, SVM classification; conditions: finalized GARDair prediction model; RS if mean SVM decision value (n=3) > 0; 24 h exposure at GARD input concentration
Procedure: (§1) All exposures were performed in repeated triplicate experiments in a controlled setting, thus generating a coherent dataset with high statistical power optimized for subsequent biomarker discovery.
(§2) A prediction model was trained and frozen, based on a Support Vector Machine (SVM), using the samples of the training data set with a binary “function in study” (respiratory sensitizer/non-respiratory sensitizer) as the dependent variable, and the gene expression values of the GRPS as the independent variables (i.e. predictors), see also Table 4.
(§3) Having established an optimized prediction model and associated protocols, the assay was challenged with two sets of external samples, referred to as test data sets.
(§4) The human myeloid leukemia-derived cell line SenzaCell (available through ATCC), acting as an in vitro model of human Dendritic Cell (DC), is maintained in a-MEM (Thermo Scientific Hyclone, Logan, Utah) supplemented with 20% (volume/volume) fetal calf serum (Life Technologies, Carlsbad, Calif.) and 40 ng/ml recombinant human Granulocyte Macrophage Colony Stimulating Factor (rhGM-CSF) (Miltenyi Biotec, Germany). A media change during expansion is performed every 3-4 days. Working stocks of cultures are grown for a maximum of 16 passages or two months after thawing. For chemical stimulation of cells, exposed cells are incubated for 24 h at 37° C., 5% CO2 and 95% humidity.
(§5) Some Test Substances were poorly dissolved in cell media; therefore, the maximum soluble concentration was assessed as well. The Test Substance that was to be tested was titrated to concentrations ranging from 1 μM to the maximum soluble concentration in cell media. For freely soluble Test Substances, 500 μM was set as the upper limit of the titration range. For Test Substances dissolved in DMSO, the in-well concentration of DMSO was 0.1%. After incubation for 24 h at 37° C., 5% CO2 and 95% humidity, harvested cells were stained with the viability marker Propidium Iodide (PI) (BD Bioscience, USA) and analyzed by flow cytometry. PI-negative cells were defined as viable, and the relative viability of cells stimulated with each concentration in the titration range was calculated as
(§6) For non-toxic Test Substances, a concentration of 500 μM was used if possible. For non-toxic Test Substances that were insoluble at 500 μM in cell media, the highest soluble concentration was used. Whichever of these three criteria was met, only one concentration will be used for gene expression analysis. The concentration to be used for any given chemical was termed the ‘GARD input concentration’.
(§7) Once the GARD input concentration for Test Substances to be assayed was established, the cells were stimulated again as described above, this time only using the GARD input concentration. All assessments of Test Substances and Benchmark Controls were assayed in biological triplicates, performed at different time-points and using different cell cultures. After incubation for 24 h at 37° C., 5% CO2 and 95% humidity, cell culture was lysed in TRlzol reagent (Life Technologies) and stored at −20° C. until RNA was extracted. In parallel, a small sample of stimulated cells was taken for PI staining and analysis with flow cytometry, to ensure the expected relative viability of stimulated cells was reached.

[3] = tested on: SenzaCell
Procedure: as §1, §2, §3, §4, §5, §6, §7

| SMILES | True group [1] | Prediction Test set 1 [2] | other results |
| --- | --- | --- | --- |
| O=[N+]([O-])c1ccc(Cl)c([N+](=O)[O-])c1 [DNCB] | NRS | NRS | Prediction Test set 2 [2]: NRS |
| CC=Cc1ccc(O)c(OC)c1 [Isoeugenol] | NRS | NRS |  |
| Nc1ccc(N)cc1 [PPD] | NRS | NRS | Prediction Test set 2 [2]: NRS |
| OCC(O)CO [Glycerol] |  | NRS |  |
| Sc1nc2ccccc2s1 [2-Mercaptobenzothiazole] | NRS |  |  |
| CCCCCCC(C=O)=Cc1ccccc1 [hexylcinnamic aldehyde] |  |  | Function in study [1]: SS/NRS |
| C=CCc1ccc(O)c(OC)c1 [Eugenol] | NRS | NRS |  |
| Nc1ccccc1O [2-aminophenol] |  |  | Function in study [1]: SS/NRS |
| OCC=Cc1ccccc1 [Cinnamyl alcohol] | NRS | NRS |  |
| [K+].[K+].[O]=[Cr](=[O])([O-])[O][Cr](=[O])(=[O])[O-] [potassium dichromate] |  |  | Function in study [1]: SS/NRS |
| O=C(O)c1ccc(O)cc1 [4-Hydroxybenzoic acid] | NRS | NRS |  |
| Oc1ccccc1 [Phenol] |  |  | Prediction Test set 1 [3]: NRS |
| C[S+](C)[O-] [DMSO] | NRS |  | Prediction Test set 2 [2]: NRS |
| O=Cc1ccccc1 [Benzaldehyde] |  | NRS |  |
| Oc1cccc(O)c1 [Resorcinol] |  | NRS |  |
| CCOC(=O)c1ccccc1C(=O)OCC [Diethyl phthalate] | NRS | NRS |  |
| Clc1ccccc1 [chlorobenzene] |  |  | Prediction Test set 2 [2]: NRS |
| CC1(C)S[C@@H]2[C@H](NC(=O)Cc3ccccc3)C(=O)N2[C@H]1C(=O)O [penicillin G] |  |  | Function in study [1]: SS/NRS |
| CCCCCCCC(=O)O [Octanoic acid] | NRS | NRS |  |
| CCCCCCCCCCCCOS(=O)(=O)[O-].[Na+] [SDS] | NRS | NRS |  |
| O=C(O)c1ccccc1O [Salicylic acid] | NRS |  |  |

Source: US20220026411A1, “ANALYTICAL METHODS AND ARRAYS FOR USE IN THE SAME” (SENZAGEN AB, priority 2019, published 2022)
